Assays:
PI3Kγ [1] = target: T1, PI3Kγ (Homo sapiens, UniProt P48736); experiment: PI3K inhibition assay, Protocol A (33P incorporation, hydrophobic membrane filter plate); format: biochemical; conditions: 40 μM ATP, 65 μM PI(4,5)P2 diC8, 75 nM PI3Kγ, average if more than one result, read-out: PI3Kγ enzyme inhibition Ki
Protocol: Compounds were screened for their ability to inhibit PI3Kγ using one of the assays below. To each well of a 96 well polystyrene plate [Corning, Costar Item No. 3696], was added 1.5 μl of a compound of the invention (at various concentrations) along with 28.5 W of kinase buffer [50 mM HEPES (pH 7.4), 5 mM DTT, 5 mM MgCl2 and 50 mM NaCl] containing 137 μM phosphatidylinositol(4,5) bisphosphate diC8 [PI(4,5)P2; Echelon Biosciences, Cat. No. P-4508] and 158 nM PI3Ky. After mixing, 30 μl of kinase buffer containing 80 μM ATP was added to start the reaction. Final substrate concentrations in the assay were 50 mM HEPES (pH 7.4), 5 mM DTT, 5 mM MgCl2, 50 mM NaCl, 40 μM ATP (200 μCi/μmole ATP), 65 μM PI(4,5)P2 and 75 nM PI3Kγ. After 20 minutes at room temperature (25° C.), the reaction was stopped with 30 μl of kinase buffer containing 150 mM EDTA and 1.5 M ammonium sulfate. Each well of a 96 well hydrophobic membrane filter plate [Millipore, 0.45 μm hydrophobic membrane, Cat. No. […]] was washed with 100 μL wash buffer [50 mM HEPES (pH 7.4), 5 mM DTT, 5 mM MgCl2, 50 mM NaCl, 5 mM EDTA and 0.5 M ammonium sulfate]. 60 μL of the stopped assay was transferred to each well of the filter plate and soaked for 30 minutes. […] The filter plate was allowed to stand overnight prior to determining ^33P incorporation on a Perkin-Elmer Microbeta TriluxTM liquid scintillation counter and luminescence counter. […]

PI3Kγ [2] = target: T1, PI3Kγ; experiment: PI3K inhibition assay, Protocol B (33P-ATP, glass fiber filter plate); format: biochemical; conditions: Protocol B; 100 μM ATP, 46 μM PI(4,5)P2 diC16, 16.6 nM PI3Kγ; average if more than one result; read-out: PI3Kγ enzyme inhibition Ki
Protocol: Compounds were screened for their ability to inhibit PI3Kγ using one of the assays below.
To each well of a 96 well polystyrene plate [Corning Costar Item No. 3795], 61 μL of Reaction Mix [55 mM HEPES pH 7.5, 11 mM MgCl2, 27 mM NaCl, 5.5 mM DTT, 0.11 mg/mL BSA, 51 μM phosphatidylinositol(4,5)bisphosphate diC16 (PI(4,5)P2; Avanti Polar Lipids, Cat. No. 840046P) and 18 nM PI3Kγ] was added. Separately, ten 2.5-fold serial dilutions of compounds of the invention were prepared in 100% DMSO with the last two wells reserved for no inhibitor controls (enzyme+no compound and no enzyme control+no compound). 1 μL it of compound or DMSO alone was added by 12-channel hand pipet and incubated for 10 minutes at room temperature (25° C.). To initiate the reaction, 5 μl of ATP Mix [49 mM HEPES pH 7.5 and 1340 ^33P-ATP was added and allowed to incubate for 30 min. at 25° C. Final concentrations of the reaction were 50 mM HEPES 7.5, 10 mM MgCl2, 25 mM NaCl, 5 mM DTT, 0.1 mg/mL BSA, 46 μM PI(4,5)P2, 16.6 nM PI3Kγ, and 100 μM ATP. Final inhibitor concentrations ranged from 10 μM to 1 nM.
After incubation, 60 μL of the reaction was quenched by transferring to 504 of 20% TCA/Water in each well of a 96 well glass fiber filter plate [Millipore Cat. No. MAFBN0B50]. The plate was dried by vacuum and then washed five times in a Bio-Tek Instruments ELX-405 Auto Plate Washer with 150 μL of 5% TCA/Water. 50 μL of scintillation fluid was added to each well and the plate was read immediately on a Perkin-Elmer TopCount™ NXT liquid scintillation counter.
Inhibition data was background subtracted (no enzyme control+no inhibitor control) and fit to the competitive tight binding Ki equation described by Morrison and Stone. [J. F. Morrison and S. R. Stone, Comments Mol. Cell. Biophys. 2 (1985) 347-368].

T1 sequence (P48736 whole entry, species assumed): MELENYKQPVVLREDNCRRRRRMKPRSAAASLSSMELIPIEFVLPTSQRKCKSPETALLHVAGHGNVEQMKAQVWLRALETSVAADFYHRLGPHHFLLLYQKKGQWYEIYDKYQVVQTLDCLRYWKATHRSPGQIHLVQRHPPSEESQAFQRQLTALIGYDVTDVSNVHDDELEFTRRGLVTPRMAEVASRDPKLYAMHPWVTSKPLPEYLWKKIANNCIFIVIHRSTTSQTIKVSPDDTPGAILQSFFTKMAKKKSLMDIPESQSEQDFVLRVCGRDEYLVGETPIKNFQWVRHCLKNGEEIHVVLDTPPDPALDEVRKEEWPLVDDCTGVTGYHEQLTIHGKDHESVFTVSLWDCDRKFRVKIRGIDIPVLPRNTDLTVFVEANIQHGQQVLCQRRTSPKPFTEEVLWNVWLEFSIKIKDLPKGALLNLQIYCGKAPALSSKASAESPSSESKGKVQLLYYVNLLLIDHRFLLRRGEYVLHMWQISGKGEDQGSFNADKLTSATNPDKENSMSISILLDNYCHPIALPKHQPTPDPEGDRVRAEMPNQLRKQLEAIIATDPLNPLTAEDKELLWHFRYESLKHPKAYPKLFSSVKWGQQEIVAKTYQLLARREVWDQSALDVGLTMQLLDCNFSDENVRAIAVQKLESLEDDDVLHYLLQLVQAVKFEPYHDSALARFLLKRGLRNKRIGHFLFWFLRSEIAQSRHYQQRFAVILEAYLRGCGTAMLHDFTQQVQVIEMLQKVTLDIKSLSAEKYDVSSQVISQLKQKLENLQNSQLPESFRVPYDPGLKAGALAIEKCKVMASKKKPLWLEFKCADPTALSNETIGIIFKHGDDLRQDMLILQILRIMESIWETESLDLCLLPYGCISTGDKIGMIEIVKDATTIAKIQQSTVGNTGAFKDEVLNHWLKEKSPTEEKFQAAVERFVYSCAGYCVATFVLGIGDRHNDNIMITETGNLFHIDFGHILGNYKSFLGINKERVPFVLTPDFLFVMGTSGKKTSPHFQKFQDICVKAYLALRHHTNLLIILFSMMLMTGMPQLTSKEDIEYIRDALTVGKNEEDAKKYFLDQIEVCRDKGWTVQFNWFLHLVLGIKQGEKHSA

Ki (PI3Kγ [1])	Ki (PI3Kγ [2])	Structure (SMILES)
1000 to 5000 nM	–	CCOC(=O)c1ccc(-c2sc(NC(=O)C3CC3)nc2C)o1 [Compound 1, Ethyl 5-(2-(cyclopropanecarboxamido)-4-methylthiazol-5-yl)furan-2-carboxylate]
–	1000 to 5000 nM	CC(=O)Nc1nc(C)c(-c2ccc(C(=O)N3CCN(C)CC3)o2)s1 [Compound 7]
–	< 100 nM	COC(=O)C(NS(=O)(=O)c1ccc(-c2sc(NC(C)=O)nc2C)o1)c1ccccc1 (stereo not drawn) [Compound 62]

Source: patent US8268818B2, “Inhibitors of C-MET and uses thereof” (Vertex Pharmaceuticals Incorporated, priority 2006, dated 2012)
